Data reported in PMC5566973 (Frontiers in Pharmacology, 2017).
Read-outs that look alike come from different tables or passages of the source.

How the values were obtained:
[1] = tested on: ATP (adenosine triphosphate); experiment: in vitro; conditions: human, Caco-2, ER, Caco-2, 2 μM, + NaN3 10 mM (ATP)
Procedure: (§1) Caco-2, MDCK and MDCK-MRP2 cells were donated by Prof. Yan Xie and Yueming Ma from Shanghai University of Traditional Chinese Medicine. The cells were grown in culture dishes (Corning® Costar, Cambridge, MA, USA) using DMEM supplemented with 10% FBS, 1% NEAA and 1% penicillin-streptomycin solution. The cells were cultured in 5% CO2 and […] with 90% relative humidity at 37°C. The medium was replaced every other day during incubation. The cells were passaged every 3–4 days between 70 and 80% confluence at a 1:5 split ratio using 0.25% trypsin-EDTA. For the transport experiments, the cells from passages between 30 and 45 were seeded at 1 × 10^5 cells/cm^2 onto permeable polycarbonate inserts (0.45 μm pore size, seeding surface of 0.6 cm^2, Millipore, MA, USA) in 24-well plastic plates. The media in the culture plates were changed every other day for the first week after seeding and were replaced daily afterward. […] The cells were used for the transport experiments 21–28 (Caco-2) or 5–7 (MDCK and MDCK-MRP2) days after seeding, and only monolayers with a TEER-value above 420 Ω cm^2 were used during the studies.
(§2) The apical (AP) and basolateral (BL) sides are typical of polarized Caco-2, MDCK and MDCK-MRP2 epithelial cells. Before the experiments, the polarized cell monolayers were washed twice with warm HBSS solution and subsequently preincubated (37°C, 30 min). Afterward, HBSS solution on both sides of the cell monolayers was removed using a mini desktop vacuum pump. […] The final DMSO concentration in the HBSS or drug mixture was below 0.5%. The monolayers were incubated at 37°C, and 100 μL samples were taken at 30, 60, 90, and 120 min from the acceptor compartment and immediately replaced with the same volume of prewarmed fresh blank HBSS. TEER measurements for assessing the membrane integrity took place before and after the experiments.
(§3) The apparent permeability coefficients (Papp) and ER were calculated as Equations (2) and (3): […]
(§4) where dQ/dt is the steady-state flux, A is the membrane surface area, and C0 is the initial drug concentration in the donor compartment. PappBA is the Papp-value measured in BL to AP direction and PappAB is the Papp-value measured in AP to BL direction. It indicated the involvement of an active transport process when the ER-value is above 1.5 (Hubatsch et al., [2007]).

MDR1 [2] = experiment: in vitro; conditions: human, Caco-2, ER, Caco-2, 2 μM
Procedure: as §1, §2, §3, §4

Na+/K+-ATPase = experiment: in vitro; conditions: human, Caco-2, 2 μM, + Sodium vanadate 0.05 mM (Na^+)
Procedure: as §1, §2, §3, §4

[3] = tested on: ATP (adenosine triphosphate); experiment: Bidirectional transport in MDCK cell monolayers with selective transporter inhibitors or substrates; type: in vitro ADME, canine; conditions: dog, with NaN3 10 mM, + NaN3 10 mM (ATP), read-out: ER
Procedure: as §1, §2, §3, §4

MDCK cell monolayers = experiment: as above; type: in vitro ADME, canine; conditions: 2 μM
Procedure: as §1, §2, §3, §4

MDR1 [4] = experiment: as above; type: in vitro ADME, canine; conditions: dog; for efflux ratio at 120 min, 2 μM: read-out: ER
Procedure: as §1, §2, §3, §4

MRP2 = experiment: as above; type: in vitro ADME, canine; conditions: dog, read-out: ER
Procedure: as §1, §2, §3, §4

OATs = experiment: as above; type: in vitro ADME, canine; conditions: dog, with cimetidine 0.05 mM (50 μM), + Cimetidine 0.05 mM (OATs)
Procedure: as §1, §2, §3, §4

OCTs/OCTNs = experiment: as above; type: in vitro ADME, canine; conditions: dog, with TEA 5 mM, + TEA 5 mM (OCTs/OCTNs)
Procedure: as §1, §2, §3, §4

SGLT1 = experiment: as above; type: in vitro ADME, canine; conditions: dog, with phloridzin 0.5 mM, + Phloridzin 0.5 mM (SGLT1), read-out: ER
Procedure: as §1, §2, §3, §4

[5] = Control (no inhibitor or substrate)
[6] = with quinidine 0.1 mM (100 μM), + Quinidine 0.1 mM (MDR1)
[7] = with verapamil 0.1 mM (100 μM), + Verapamil 0.1 mM (MDR1)

COc1ccc2c3c([nH]c2c1)C(C)=NCC3 [Harmaline]
efflux ratio [1]: 1.15 | efflux ratio (MDR1 [2]; + Quinidine 0.1 mM (MDR1)): 0.96 | efflux ratio (MDR1 [2]; + Verapamil 0.1 mM (MDR1)): 0.94 | efflux ratio (Na+/K+-ATPase; Caco-2, ER): 1.27 | Papp B→A (Na+/K+-ATPase; Caco-2, PappBA): 26.9 ± 1.26 ×10⁻⁶ cm/s | efflux ratio at 120 min, 2 μM [3]: 1.4 | Modulatory effect (MDCK cell monolayers; + Apigenin 0.025 mM (BCRP)): − | PappAB (MDCK cell monolayers; + Apigenin 0.025 mM (BCRP)): 20.44 ± 2.19 1 × 10^−6 cm/s | Modulatory effect (MDCK cell monolayers; + Cimetidine 0.05 mM (OATs)): − | Modulatory effect (MDCK cell monolayers; + ES 0.05 mM (OATPs)): − | PappBA (MDCK cell monolayers; + ES 0.05 mM (OATPs)): 20.89 ± 0.79 1 × 10^−6 cm/s | Modulatory effect (MDCK cell monolayers; + Gly-Sar 10 mM (PEPT1)): − | Modulatory effect (MDCK cell monolayers; + Ko143 0.01 mM (BCRP)): − | PappAB (MDCK cell monolayers; + Ko143 0.01 mM (BCRP)): 20.08 ± 0.41 1 × 10^−6 cm/s | PappBA (MDCK cell monolayers; + Ko143 0.01 mM (BCRP)): 23.37 ± 0.73 1 × 10^−6 cm/s | Modulatory effect (MDCK cell monolayers; + MK571 0.05 mM (MRP2)): − | PappAB (MDCK cell monolayers; + MK571 0.05 mM (MRP2)): 19.66 ± 0.65 1 × 10^−6 cm/s | PappBA (MDCK cell monolayers; + MK571 0.05 mM (MRP2)): 22.57 ± 0.14 1 × 10^−6 cm/s | Modulatory effect (MDCK cell monolayers; + NaN3 10 mM (ATP)): + | PappAB (MDCK cell monolayers; + NaN3 10 mM (ATP)): 16.22 ± 0.84^* 1 × 10^−6 cm/s | PappBA (MDCK cell monolayers; + NaN3 10 mM (ATP)): 22.78 ± 1.65 1 × 10^−6 cm/s | Modulatory effect (MDCK cell monolayers; + Phloretin 0.3 mM (MCTs)): − | PappAB (MDCK cell monolayers; + Phloretin 0.3 mM (MCTs)): 20.34 ± 0.71 1 × 10^−6 cm/s | PappAB (MDCK cell monolayers; + Phloridzin 0.5 mM (SGLT1)): 15.96 ± 0.96^* 1 × 10^−6 cm/s | PappBA (MDCK cell monolayers; + Phloridzin 0.5 mM (SGLT1)): 20.59 ± 1.19 1 × 10^−6 cm/s | Modulatory effect (MDCK cell monolayers; + Probenecid 0.2 mM (MRP2)): − | PappAB (MDCK cell monolayers; + Probenecid 0.2 mM (MRP2)): 21.01 ± 2.16 1 × 10^−6 cm/s | PappBA (MDCK cell monolayers; + Probenecid 0.2 mM (MRP2)): 21.86 ± 1.21 1 × 10^−6 cm/s | Modulatory effect (MDCK cell monolayers; + Quinidine 0.1 mM (MDR1)): − | Modulatory effect (MDCK cell monolayers; + Sodium vanadate 0.05 mM (Na^+)): + | Modulatory effect (MDCK cell monolayers; + TEA 5 mM (OCTs/OCTNs)): + | Modulatory effect (MDCK cell monolayers; + Verapamil 0.1 mM (MDR1)): − | PappAB (MDCK cell monolayers; + Verapamil 0.1 mM (MDR1)): 20.96 ± 1.30 1 × 10^−6 cm/s | PappAB (MDCK cell monolayers; [5]): 20.36 ± 1.82 1 × 10^−6 cm/s | PappBA (MDCK cell monolayers; [5]): 21.03 ± 2.11 1 × 10^−6 cm/s | Papp A→B at 120 min, 2 μM (MDR1 [4]; [6]): 20.1 ± 0.76 ×10⁻⁶ cm/s | Papp B→A at 120 min, 2 μM (MDR1 [4]; [6]): 22.5 ± 1.12 ×10⁻⁶ cm/s | efflux ratio at 120 min, 2 μM (MDR1 [4]; [6]): 1.12 | Papp B→A at 120 min, 2 μM (MDR1 [4]; [7]): 21.9 ± 2.64 ×10⁻⁶ cm/s | efflux ratio at 120 min, 2 μM (MDR1 [4]; [7]): 1.05 | efflux ratio at 120 min, 2 μM (MRP2; with MK571 0.05 mM (50 μM), + MK571 0.05 mM (MRP2)): 1.15 | efflux ratio at 120 min, 2 μM (MRP2; with probenecid 0.2 mM (200 μM), + Probenecid 0.2 mM (MRP2)): 1.04 | Papp A→B at 120 min, 2 μM (OATs): 19.2 ± 1.29 ×10⁻⁶ cm/s | Papp B→A at 120 min, 2 μM (OATs): 19.2 ± 1.33 ×10⁻⁶ cm/s | efflux ratio at 120 min, 2 μM (OATs; read-out: ER): 1 | Papp A→B at 120 min, 2 μM (OCTs/OCTNs): 16.5 ± 1.1 ×10⁻⁶ cm/s | Papp B→A at 120 min, 2 μM (OCTs/OCTNs): 22.8 ± 0.29 ×10⁻⁶ cm/s | efflux ratio at 120 min, 2 μM (OCTs/OCTNs; read-out: ER): 1.38 | efflux ratio at 120 min, 2 μM (SGLT1): 1.29
